# In patent publication US9663534B2, “Fused bicyclic isoxazolines as inhibitors of cholesterol ester transfer protein” (Merck Sharp & Dohme Corp., priority 2013, dated 2017):
# Test system: not given
# Test: not given
# Details: patients treated with anacetrapib along with baseline statin therapy, compared with just a statin; cited from earlier work
SMILES,decrease of LDL-C [%],increase of HDL-C [%]
COc1cc(F)c(C(C)C)cc1-c1ccc(C(F)(F)F)cc1CN1C(=O)O[C@H](c2cc(C(F)(F)F)cc(C(F)(F)F)c2)[C@@H]1C [Anacetrapib],40,138

# Molecular target: T1, endogenous CETP from serum (Homo sapiens, UniProt P11597)
# T1 construct: yielding a concentration of approximately 15 nM endogenous CETP in the assay; from tissue; host or cells: human serum
# T1 sequence (P11597 18-493): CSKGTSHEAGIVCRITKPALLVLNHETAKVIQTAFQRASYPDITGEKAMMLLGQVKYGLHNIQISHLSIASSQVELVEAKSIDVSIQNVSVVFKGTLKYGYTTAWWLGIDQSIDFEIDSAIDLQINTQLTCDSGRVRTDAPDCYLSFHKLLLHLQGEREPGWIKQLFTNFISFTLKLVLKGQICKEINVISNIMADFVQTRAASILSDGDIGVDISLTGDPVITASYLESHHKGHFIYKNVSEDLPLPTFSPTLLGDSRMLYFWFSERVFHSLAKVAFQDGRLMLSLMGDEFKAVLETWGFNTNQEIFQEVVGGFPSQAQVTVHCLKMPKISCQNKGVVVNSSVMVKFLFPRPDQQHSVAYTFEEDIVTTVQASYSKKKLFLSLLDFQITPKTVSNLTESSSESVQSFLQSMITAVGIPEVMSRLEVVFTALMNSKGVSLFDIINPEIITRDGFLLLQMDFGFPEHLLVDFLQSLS
# Test: RTA assay of CETP-catalyzed CE and TG transfer in 95% human serum (95% RTA)
# Format: biochemical
# Details: RTA assay in 95% human serum; read-out: IC50 (nM) RTA with 95% HS
row,SMILES,IC50 [nM]
1,"COc1ncc(-c2ccc(C(=O)O)cc2C)cc1-c1ccc(C(F)(F)F)cc1[C@@H]1CC[C@@H]2C1=NO[C@@H]2c1cc(F)cc(C(F)(F)F)c1 [Example 7, 4-(5-(2-((3S,3aR,6S)-3-(3-fluoro-5-(trifluoromethyl)phenyl)-3a,4,5,6-tetrahydro-3H-cyclopenta[c]isoxazol-6-yl)-4-(trifluoromethyl)phenyl)-6-methoxypyridin-3-yl)-3-methylbenzoic acid]",57
2,"COc1ccc(-c2ccc(C(=O)O)cc2C)cc1-c1ccc(C(F)(F)F)cc1[C@@H]1CC[C@@H]2C1=NO[C@@H]2c1cc(F)cc(C(F)(F)F)c1 [Example 8, 2″-((3S,3aR,6S)-3-(3-fluoro-5-(trifluoromethyl)phenyl)-3a,4,5,6-tetrahydro-3H-cyclopenta[c]isoxazol-6-yl)-4′-methoxy-2-methyl-4″- (trifluoromethyl)-[1,1′:3′,1″- terphenyl]-4-carboxylic acid]",36
3,"COc1ncc(-c2ccc(C(=O)O)cc2C)cc1-c1ccc(C(F)(F)F)nc1[C@@H]1CC[C@@H]2C1=NO[C@@H]2c1cc(C(F)(F)F)cc(C(F)(F)F)c1 [Example 9, 4-[2′-{3-[3,5-bis(trifluoromethyl)phenyl]-3a,4,5,6-tetrahydro-3H-cyclopenta[c]isoxazol-6-yl}-2 methoxy-6′-(trifluoromethyl)-3,3′-bipyridin-5-yl]-3-methylbenzoic acid]",287
4,"COc1ccc(CCC(=O)O)cc1-c1ccc(C(F)(F)F)cc1[C@@H]1CC[C@@H]2C1=NO[C@@H]2c1cc(C(F)(F)F)cc(C(F)(F)F)c1 [Example 4, 3-[2′-{(3S,3aR,6S)-3-[3,5-bis(trifluoromethyl)phenyl]-3a,4,5,6-tetrahydro-3H-cyclopenta[c]isoxazol-6-yl}-6-methoxy-4′-(trifluoromethyl)biphenyl-3-yl]propanoic acid]",3790
5,"COc1ccc(-c2ccc(C(=O)O)cc2C)cc1-c1ccc(C(F)(F)F)cc1[C@@H]1CC[C@@H]2C1=NO[C@@H]2c1cc(C(F)(F)F)cc(C(F)(F)F)c1 [Example 5, 2″-{(3S,3aR,6S)-3-[3,5-bis(trifluoromethyl)phenyl]-3a,4,5,6-tetrahydro-3H-cyclopenta[c]isoxazol-6-yl}-4′-methoxy-2-methyl-4″- (trifluoromethyl)-1,1′:3′,1″- terphenyl-4-carboxylic acid]",145
6,"COc1ccc([C@H]2CC[C@H](C(=O)O)CC2)cc1-c1ccc(C(F)(F)F)cc1[C@@H]1CC[C@@H]2C1=NO[C@@H]2c1cc(C(F)(F)F)cc(C(F)(F)F)c1 [Example 6, trans-4-[2′-{(3S,3aR,6S)-3-[3,5-bis(trifluoromethyl)phenyl]-3a,4,5,6-tetrahydro-3H-cyclopenta[c]isoxazol-6-yl}-6-methoxy-4′-(trifluoromethyl)biphenyl-3-yl]cyclohexanecarboxylic acid]",383

# Same assay, conditions: RTA assay in 95% human serum; read-out: IC50 RTA (95% HS)
row,SMILES,IC50 [nM]
1,"COc1ccc(-c2ccc(C(=O)O)cc2C)cc1-c1cnc(C(F)(F)F)cc1[C@@H]1CC[C@@H]2C1=NO[C@@H]2c1cc(C(F)(F)F)cc(C(F)(F)F)c1 [Example 2A, 3′-(4-((3S,3aR,6S)-3-(3,5-bis(trifluoromethyl)phenyl)-3a,4,5,6-tetrahydro-3H-cyclopenta[c]isoxazol-6-yl)-6-(trifluoromethyl)pyridin-3-yl)-4′-methoxy-2-methyl-[1,1′-biphenyl]-4-carboxylic acid]",1590
2,"COc1ccc(-c2ccc(C(=O)O)cc2C)cc1-c1cnc(C(F)(F)F)cc1[C@H]1CC[C@H]2C1=NO[C@H]2c1cc(C(F)(F)F)cc(C(F)(F)F)c1 [Example 2B, 3′-(4-((3R,3aS,6R)-3-(3,5-bis(trifluoromethyl)phenyl)-3a,4,5,6-tetrahydro-3H-cyclopenta[c]isoxazol-6-yl)-6-(trifluoromethyl)pyridin-3-yl)-4′-methoxy-2-methyl-[1,1′-biphenyl]-4-carboxylic acid]",10000
3,"COc1ncc(-c2ccc(C(=O)O)cc2C)cc1-c1ccc(C(F)(F)F)cc1[C@@H]1CC[C@@H]2C1=NO[C@@H]2c1cc(C(F)(F)F)cc(C(F)(F)F)c1 [Example 1A, 4-(5-(2-((3S,3aR,6S)-3-(3,5-bis(trifluoromethyl)phenyl)-3a,4,5,6-tetrahydro-3H-cyclopenta[c]isoxazol-6-yl)-4-(trifluoromethyl)phenyl)-6-methoxypyridin-3-yl)-3-methylbenzoic acid]",70
4,"COc1ncc(-c2ccc(C(=O)O)cc2C)cc1-c1ccc(C(F)(F)F)cc1[C@H]1CC[C@H]2C1=NO[C@H]2c1cc(C(F)(F)F)cc(C(F)(F)F)c1 [Example 1B, 4-(5-(2-((3R,3aS,6R)-3-(3,5-bis(trifluoromethyl)phenyl)-3a,4,5,6-tetrahydro-3H-cyclopenta[c]isoxazol-6-yl)-4-(trifluoromethyl)phenyl)-6-methoxypyridin-3-yl)-3-methylbenzoic acid]",10000
